# Measurements as given in patent publication US8258128B2, “Organic compounds” (Novartis AG, priority 2006, dated 2012).
# Several values for one entry are separate records, joined by “and”; a condition that tells them apart may be missing. Equal entries are not always repeated. Entries after “also recorded” stand apart in the source; their conditions may differ. Marks after values point to notes of the source that are not given here.
# Legend:
# [1] = Tolerability relative to effective dose in chronic disease models (general statement); type: in vivo; details: doses more than 10 times higher than the effective dose in chronic disease models
# [2] = test system: developing Adjuvant-induced arthritis in rats; test: Developing adjuvant-induced arthritis in rats (prophylactic dosing schedule); type: in vivo, rat; details: for % inhibition: day 0 to day 14; for Swelling (mm) ± SEM: day 0 to day 14, readout day 14
# Text: Adjuvant arthritis can be treated using two different dosing schedules; either starting at the time of immunization with adjuvant (prophylactic dosing) or from day 15 when the arthritic response is already established (therapeutic dosing). It is more difficult to inhibit adjuvant arthritis with the therapeutic dosing schedule as compared to the prophylactic schedule. Both versions of adjuvant arthritis are, however, extremely sensitive to the effects of both non-selective COX inhibitors and COX 2 selective inhibitors where 70-90% inhibition of swelling can be achieved at appropriate doses. These models may be predictive for some of the processes thought to be relevant in rheumatoid arthritis.
# Method: Female Wistar rats weighing 150-170 g (housed in standard conditions, 5 animals per cage, with food and water ad libitum) are injected i.d. at the base of the tail with 0.1 ml of mineral oil containing 0.6 mg of lyophilized heat-killed Mycobacterium tuberculosis. The rats are treated orally with COMPOUND A or placebo formulation from day 15 to day 22 (therapeutic dosing schedule) or with COMPOUND A from day 0 to day 14 after immunization (prophylactic dosing schedule). At the end of the experiment, the swelling of the tarsal joints is measured by means of a micro-caliper. For the comparison study to Diclofenac both compounds are given from day 15 to day 29 with readouts at day 22 and 29. Percentage inhibition of paw swelling is calculated by reference to placebo treated arthritic animals (0% inhibition) and placebo treated normal animals (100% inhibition). Five animals are used per group. Data are analyzed using Kruskal-Wallis non-parametric ANOVA followed by Dunn's Multiple Comparison test.
# [3] = test system: collagen-induced arthritis in the rats; test: Collagen-induced arthritis in the rats, hind paw swelling; type: in vivo, rat
# Text: Animal models of RA need to reflect at least some of the features found in human RA (Billingham et al., 1979). Collagen-induced arthritis (CIA) has been proposed to meet these requirements (Durie et al., 1994). Especially the similarity in the joint pathophysiology makes this animal model most attractive for the evaluation of anti-rheumatic drugs (Takeshita et al., 1997). Synovial hyperplasia, which is an integral part of the disease, parallels the migration of leukocytes into the joint space; erosion and destruction of the cartilage surface can also be found (Holmdahl et al., 1985). The rat CIA, originally described by Trentham et al. (1977), was established and extensive studies with CsA were done, including three-dimensional magnetic resonance imaging (MRI) and histology (Beckmann et al., 1995; 1998). Differences in the susceptibility of several rat strains for the development of the disease have been reported (Cremer et al., 1995; Kamada et al., 1997; Knoerzer et al., 1997).
# Method: For this study, COMPOUND A and COX-inhibitor Diclofenac are dissolved in a solvent containing 5% of glucose (5 ml/kg). Compounds are given orally once a day. Female rats of the WAGxBUF/F1 crossbred strain (weight 130 g) are used. The animals are divided into several groups, one placebo group (N=8), and four treatment groups (each N=7-8). Treatment starts on peak of disease (day 0) and continues for 11 days. Swelling is assessed at regular time intervals by measuring the external thickness of the hind paws in the region of the metatarsals using a micro-caliper. Tissue samples for histological evaluation are obtained at the end of the in vivo experiment, 5 h after the last oral dose of COMPOUND A or placebo on day 11.
# Results shown are means±SEM of groups of each 4-8 animals of paw diameters in mm on day-12 (before the immunization with Type II collagen in incomplete Freund's adjuvant), day 0 (start of treatment) and day 11 (end of treatment).
# The data shown represent the ability of the treatment (COMPOUND A at 4 different increasing doses) to reduce the volume of the hind paw measured at day 2, day 7 and day 11.
smiles,measurement,setting,value
"COC1=Nc2cc(Cl)ccc2/C(=C/C(=O)O)c2sc(Cl)cc21 [COMPOUND A, [2,7-Dichloro-10-methoxy-3-thia-9-aza-benzo[f]azulen-(4Z)-ylidene]-acetic acid]",tolerability,[1],very well tolerated
same,% inhibition,[2]; 0.3 mg/kg p.o.,14.3 * %
same,Swelling (mm) ± SEM,[2]; 0.3 mg/kg p.o.,10.9 ± 0.6 mm
same,% inhibition,[2]; 1 mg/kg p.o.,57.1 * %
same,Swelling (mm) ± SEM,[2]; 1 mg/kg p.o.,9.1 ± 0.5 mm
same,% inhibition,[2]; 3 mg/kg p.o.,88% and 88.1 ** %
same,Swelling (mm) ± SEM,[2]; 3 mg/kg p.o.,7.8 ± 0.2 mm
same,ED50,"[2]; Rattus norvegicus, po, prophylactic dosing schedule, read-out: calculated ED50",0.8 mg/kg
same,"hind paw diameter, mean ± SEM","[3]; 0.3 mg/kg group, Day 0 (start of treatment)",5.406 ± 0.448 mm
same,"hind paw diameter, mean ± SEM","[3]; 0.3 mg/kg group, Day −12 (before immunization)",3.069 ± 0.016 mm
same,"median inhibition of swelling, analysis of the AUC during day 0 to 11",[3]; 0.3 mg/kg per day p.o.,29±9.2%
same,Effect on hind paw swelling,"[3]; 0.3 mg/kg per day p.o., Day 0-11 (AUC)",−29 ± 9.2%
same,Effect on hind paw swelling,"[3]; 0.3 mg/kg per day p.o., Day 2",−33% **
same,Effect on hind paw swelling,"[3]; 0.3 mg/kg per day p.o., Day 7",−31% *
same,Effect on hind paw swelling,"[3]; 0.3 mg/kg per day p.o., Day 11",−20%
same,"hind paw diameter, mean ± SEM","[3]; 0.3 mg/kg per day p.o., Day 11 (end of treatment)",4.417 ± 0.079 mm
same,"hind paw diameter, mean ± SEM","[3]; 1 mg/kg group, Day 0 (start of treatment)",5.350 ± 0.344 mm
same,"hind paw diameter, mean ± SEM","[3]; 1 mg/kg group, Day −12 (before immunization)",3.107 ± 0.046 mm
same,"median inhibition of swelling, analysis of the AUC during day 0 to 11",[3]; 1 mg/kg per day p.o.,37±6.8%
same,Effect on hind paw swelling,"[3]; 1 mg/kg per day p.o., Day 0-11 (AUC)",−37 ± 6.8%
same,Effect on hind paw swelling,"[3]; 1 mg/kg per day p.o., Day 2",−40% **
same,Effect on hind paw swelling,"[3]; 1 mg/kg per day p.o., Day 7",−38% **
same,Effect on hind paw swelling,"[3]; 1 mg/kg per day p.o., Day 11",−47% ***
same,"hind paw diameter, mean ± SEM","[3]; 1 mg/kg per day p.o., Day 11 (end of treatment)",3.983 ± 0.064 mm
same,"hind paw diameter, mean ± SEM","[3]; 3 mg/kg group, Day 0 (start of treatment)",5.379 ± 0.224 mm
same,"hind paw diameter, mean ± SEM","[3]; 3 mg/kg group, Day −12 (before immunization)",3.136 ± 0.026 mm
same,"median inhibition of swelling, analysis of the AUC during day 0 to 11",[3]; 3 mg/kg per day p.o.,51±7.1%
same,Effect on hind paw swelling,"[3]; 3 mg/kg per day p.o., Day 0-11 (AUC)",−51 ± 7.1%
same,Effect on hind paw swelling,"[3]; 3 mg/kg per day p.o., Day 2",−59% ***
same,Effect on hind paw swelling,"[3]; 3 mg/kg per day p.o., Day 7",−47% ***
same,Effect on hind paw swelling,"[3]; 3 mg/kg per day p.o., Day 11",−71% ***
same,"hind paw diameter, mean ± SEM","[3]; 3 mg/kg per day p.o., Day 11 (end of treatment)",3.592 ± 0.085 mm
same,"hind paw diameter, mean ± SEM","[3]; 9 mg/kg group, Day 0 (start of treatment)",5.364 ± 0.231 mm
same,"hind paw diameter, mean ± SEM","[3]; 9 mg/kg group, Day −12 (before immunization)",3.043 ± 0.028 mm
same,"median inhibition of swelling, analysis of the AUC during day 0 to 11",[3]; 9 mg/kg per day p.o.,67±5.4%
same,Effect on hind paw swelling,"[3]; 9 mg/kg per day p.o., Day 0-11 (AUC)",−67 ± 5.4%
same,Effect on hind paw swelling,"[3]; 9 mg/kg per day p.o., Day 2",−69% ***
same,Effect on hind paw swelling,"[3]; 9 mg/kg per day p.o., Day 7",−75% ***
same,Effect on hind paw swelling,"[3]; 9 mg/kg per day p.o., Day 11",−90% ***
same,"hind paw diameter, mean ± SEM","[3]; 9 mg/kg per day p.o., Day 11 (end of treatment)",3.275 ± 0.038 mm
same,detrimental effect on body weight gain,"[3]; 0.3 to 9 mg/kg per day p.o., 11 days",not observed; also recorded: does not interfere with body weight gain
